Results on 6 compounds are retold here after patent US6727257B1, “5-(heterocyclic alkyl)-6-aryl-dihydropyrimidines” (Synaptic Pharmaceutical Corporation, priority 1994, dated 2004).

Molecules are shown by their SMILES. Where a name gives a salt, the structure may show the parent alone.

`COCN1C(C)=NC(C)=C(C(=O)NCCCN2CCC(C(=O)OC)(c3ccccc3)CC2)C1c1ccc(F)c(F)c1` (stereo not drawn) registered a melting point of 53 to 57 °C. In turn, `CNC(=O)C1=C(C)N=C(C)N(CCCCCN2CCC(C(=O)OC)(c3ccccc3)CC2)C1c1ccc(F)cc1F` (stereo not drawn) (as salt: HCl) had a melting point of 152 to 155 °C. Regarding `COC(=O)C1=C(C)N=C(C)N(CCCCCN2CCC(C(=O)OC)(c3ccccc3)CC2)C1c1ccc(F)c(F)c1` (stereo not drawn) (as salt: HCl) [Example 23, 6-(3,4-Difluorophenyl)-1,6-dihydro-5-methoxycarbonyl-1-(5-(4-methoxycarbonyl-4-phenylpiperidin-1-yl)-pentyl)-2,4-dimethylpyrimidine], the melting point lay within 170 to 176 °C.

In turn, `COC(=O)C1=C(C)N=C(C)N(CCCCCNCCCc2ccccc2)C1c1ccc(F)c(F)c1` (stereo not drawn) (as salt: HCl) [Example 61, 6-(3,4-Difluorophenyl)-1,6-dihydro-5-methoxycarbonyl-2,4-dimethyl-1-(5-(3-phenylpropylamino)pentyl)pyrimidine] came in with a melting point of 95 to 97 °C. In turn, `COC(=O)C1=C(C)NC(=O)N(C(=O)NCCCN2CCC(c3ccccn3)CC2)C1c1ccc(F)c(F)c1` (stereo not drawn) (as salt: hydrochloride) [Example 21, 6-(3,4-Difluorophenyl)-5-methoxycarbonyl-4-methyl-2-oxo-1-{N-[4-(2-pyridyl)-piperidine-1-yl]propyl)carboxamido-1,2,3,6-tetrahydropyrimidine Dihydrochloride] registered a melting point of 170 to 174 °C.

`COC(=O)C1=C(C)N=C(C)N(CCCC(O)CN2CCC(c3ccccn3)CC2)C1c1ccc(F)c(F)c1` (single isomer, unassigned; (+)) (as salt: HCl) [Example 62, (+)-6-(3,4-Difluorophenyl)-1,6-dihydro-1-(4-hydroxy-5-(4-(2-pyridyl)piperidin-1-yl)pentyl)-5-methoxycarbonyl-2,4-dimethylpyrimidine] yielded a melting point of 163 to 165 °C.

The term melting point denotes the temperature of the solid-liquid transition.
